Laboratory results as given in patent US20260297060A1, “COMPOUNDS FOR THE DEGRADATION OF MUTANT BRAF” (C4 THERAPEUTICS, INC., priority 2023, published 2026).

What was measured:
Format in all cases: in vivo, BALB/c nude mice
[1] = test system: A375 human melanoma xenografts; assay: Example 7 efficacy study in A375 human melanoma xenografts (tumor volume, T/C, TGI); conditions: 100 mg/kg, p.o., QD × 14 days
Method: For efficacy study, agents were tested in the A375 human melanoma xenografts. Compound 118, Compound 156, and Compound 180 were administered to BALB/c nude mice bearing A375 xenografts from day 0 and dosed p.o. twice per day (BID). Compound 141 was administered from day 0 and dosed p.o. twice per day (BID) or dosed p.o. daily (QD) from day 1. Compound 141, Compound 118, Compound 156, and Compound 180 were dosed at 10 mg/kg for 14 days. The known BRAF inhibitor Dabrafenib was used as a positive control. Dabrafenib was administered from day 1 and dosed p.o. daily (QD) for 14 days and dosed at 100 mg/kg.
The A375 tumor cells were maintained in vitro in DMEM medium supplemented with […] and 1% Penicillin-Streptomycin at 37° C. in an atmosphere of 5% CO2 in air. The tumor cells were routinely subcultured twice weekly. The cells growing in an exponential growth phase were harvested and counted for tumor inoculation.
Each mouse was inoculated subcutaneously at the right flank with A375 tumor cells (5×10^6) in 0.2 mL of PBS with Matrigel (PBS: Matrigel=1:1) supplemented for tumor development. Animals were grouped when the average tumor volume reached 246 mm^3 for efficacy study and 390 mm^3 for PKPD study on day 17 after tumor inoculation. The test articles administration and the animal numbers in each group are shown in the above experimental tables.
Prior to the onset of drug treatment, mice were measured for tumor size in two dimensions using a caliper, and the tumor volume (mm^3) was calculated using formula V=0.5 a×b^2 where a and b are the long and short diameters of the tumor in mm, respectively. Mice were randomized into different treatment groups based on the tumor volume.
The major endpoint was to see if the tumor growth could be delayed or mice could be cured. The tumor size was then used for calculations of T/C value. The T/C value (in percent) is an indication of antitumor effectiveness; T and C are the mean volumes of the treated and control groups, respectively on specified day.
TGI was calculated for each group using the formula: TGI (%)=[1−(Ti−T0)/(Ci−C0)]×100; Ti is the average tumor volume of a treatment group on a given day, T0 is the average tumor volume of the treatment group on the day of treatment start, Ci is the average tumor volume of the vehicle control group on the same day with Ti, and C0 is the average tumor volume of the vehicle group on the day of treatment start.

[2] = Example 9 pharmacokinetics assay for efficacy study Part I and II (plasma, liver); conditions: mouse, po, 100 mg/kg, p.o., QD × 14 days, 6 h following last treatment, ± SEM
Method: For efficacy study Part I, agents were tested in the A375 human melanoma xenografts. Compound 218 and Compound 157 were administered to BALB/c nude mice bearing A375 xenografts from day 0 and dosed twice a day (BID) for 14 days. Compound 218 and Compound 157 were dosed at 10 mg/kg via p.o.. Dabrafenib was administered from day 1 daily (QD) for 14 days and dosed at 100 mg/kg via p.o..
For efficacy study Part II, agents were tested in the A375 human melanoma xenografts model. Compound 133, Compound 144 and Compound 198 were administered to BALB/c nude mice bearing A375 xenografts from day 0 and dosed twice a day (BID) for 14 days. Compound 133, Compound 144 and Compound 198 were dosed at 10 mg/kg via p.o..
(§1) The plasma samples were collected at predetermined time points for PK analysis. The mice were euthanized at predetermined time points post the treatment. The blood samples were collected into the 1.5 mL Eppendorf tubes containing 15 μL of 0.5 M EDTA-K2. And then the anticoagulant blood samples were centrifuged at 2,500 g at 4° C. for 15 minutes. The plasma samples were separated into 2 aliquots. The 1st was used for PK analysis, and the 2nd served as backup. The samples were stored at −80° C. before bioanalysis.
(§2) Liver samples were collected at predetermined time points for PK analysis. The left lobe of the liver was dissected out and split into 2 parts. The 1st part was used for PK analysis and the 2nd part served as the backup for the study. The samples were transferred into pre-labeled tubes and quickly froze in liquid nitrogen within 2 minutes after dissection. The samples were stored at −80° C. before bioanalysis.
The harvested plasma and liver samples were processed for pharmacokinetics analysis by LC-MS/MS with a concentration range of 1.00-1,000 ng/mL for Dabrafenib in plasma and liver homogenate, 10.0-10,000 ng/mL for Compound 218, Compound 157, Compound 133, Compound 144 and Compound 198 in plasma and liver homogenate.

[3] = Example 8 pharmacokinetics assay for efficacy study (plasma, liver); conditions: mouse, po, 35 mg/kg, p.o., QD × 21 days
Method: For efficacy study, agents were tested in the A375 human melanoma xenografts model. Compound 8, Compound 26, and Compound 38 were administered to BALB/c nude mice bearing A375 xenografts from day 0 and dosed p.o. twice per day (BID). Compound 8 and Compound 26 were dosed at 10 mg/kg for 21 days. Compound 38 was dosed at 10 mg/kg for 10 days. The known BRAF inhibitor encorafenib was used as a positive control. encorafenib was administered from day 1 and dosed p.o. daily (QD) for 21 days and dosed at 35 mg/kg.
as §1, with “analysis. For non-termination plasma collection, blood samples were collected into the 1.5 mL Eppendorf tubes containing 3 μL of 0.5 M EDTA-K2. For termination plasma collection, the” for “analysis. The”, “the treatment and the” for “the treatment. The”
as §2
The harvested plasma and liver samples were processed for pharmacokinetics analysis by LC-MS/MS with a concentration range of 2.0~2000 ng/mL for encorafenib in plasma and liver homogenate, 10.0-10,000 ng/mL for Compound 8 and Compound 38 in plasma and liver homogenate, 20.0~20,000 ng/mL for Compound 26 in plasma and liver homogenate.

| Compound | T/C ([1]; PG-D14) [%] | TGI ([1]; PG-D14) [%] | Tumor Size on PG-D14 (mean ± SEM) ([1]; PG-D14) [mm^3] | Tumor Volume (mean ± SEM) ([1]; day 0) [mm^3] | Tumor Volume (mean ± SEM) ([1]; day 3) [mm^3] | Tumor Volume (mean ± SEM) ([1]; day 7) [mm^3] | Tumor Volume (mean ± SEM) ([1]; day 10) [mm^3] | Tumor Volume (mean ± SEM) ([1]; day 14) [mm^3] | concentration at 6 h ([2]; liver, read-out: Mean Concentration in Liver) [ng/g] | concentration at 6 h ([2]; plasma, read-out: Mean Concentration in Plasma) [ng/mL] | concentration at 6 h ([3]; liver, read-out: Concentration in Liver (mean ± SEM)) [ng/g] | concentration at 6 h ([3]; plasma, read-out: Concentration in Plasma (mean ± SEM)) [ng/mL] |
| --- | --- | --- | --- | --- | --- | --- | --- | --- | --- | --- | --- | --- |
| CC(C)(C)c1nc(-c2cccc(NS(=O)(=O)c3c(F)cccc3F)c2F)c(-c2ccnc(N)n2)s1 [Dabrafenib, dabrafenib, reference compound] | 55.8 | 54.3 | 741 ± 40 | 246 ± 10 | 394 ± 20 | 515 ± 30 | 608 ± 21 | 741 ± 40 | 1240 ± 162 | 410 ± 58.2 |  |  |
| COC(=O)N[C@@H](C)CNc1nccc(-c2cn(C(C)C)nc2-c2cc(Cl)cc(NS(C)(=O)=O)c2F)n1 [Encorafenib, encorafenib, reference compound] |  |  |  |  |  |  |  |  |  |  | 186 ± 87.2 | 336 ± 150 |
